Data on eight compounds can be found in paper PMC10626578, “Designed switch from covalent to non-covalent inhibitors of carboxylesterase Notum activity” (European Journal of Medicinal Chemistry, 2023).

Series [1] addresses T1, Notum (core, 81–451C330S) (Homo sapiens, UniProt Q6P988, C330S).
T1 construct: high-throughput biochemical assay with Notum (81–451C330S) and OPTS as a synthetic fluorescent substrate; made in house
T1 sequence (Q6P988 81-451 C330S): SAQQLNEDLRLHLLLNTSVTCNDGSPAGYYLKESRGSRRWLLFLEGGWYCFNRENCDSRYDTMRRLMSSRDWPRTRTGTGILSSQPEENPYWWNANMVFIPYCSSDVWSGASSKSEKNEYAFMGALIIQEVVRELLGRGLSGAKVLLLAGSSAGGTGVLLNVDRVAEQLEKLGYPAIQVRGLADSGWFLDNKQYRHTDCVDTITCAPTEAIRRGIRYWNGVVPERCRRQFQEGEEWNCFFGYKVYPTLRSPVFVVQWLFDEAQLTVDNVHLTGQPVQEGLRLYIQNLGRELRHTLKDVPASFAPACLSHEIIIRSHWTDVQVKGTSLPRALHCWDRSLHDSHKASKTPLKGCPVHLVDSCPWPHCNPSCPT
The series is described as follows: Notum-OPTS biochemical assay, Notum (81–451C330S). The settings on record: for fold increase in Notum inhibition over 3a: vs 3a, more potent. As to the method:
Notum inhibitors 3–5 (Table 1, Table 2, Table 3, Table 4) were either purchased or prepared using established synthetic methods from readily available starting materials (Scheme 1). Where necessary, the synthesis of many of these amines (e.g. 6) have been reported previously and full details of their preparation have been included in the Experimental Section. Notum inhibition activity was determined using the standard Notum-OPTS biochemical assay using IC50 values. These values were used to compare relative activities with covalent inhibitors under carefully regulated assay conditions. […] Selected inhibitors were screened for inhibition of Notum activity in a TCF/LEF Reporter (Luciferase) cell line with exogenous WNT3a and Notum, and soaked into Notum crystals to determine their binding modes and evidence of MoA.
(§1) Methods have been described in detail.

Series [2] is described as follows: Stability in human liver microsomes. The series is classed as in vitro ADME. The settings on record: for half-life: human, read-out: HLM Stability t1/2. As to the method:
(§2) Selected compounds were routinely screened for aqueous solubility in PBS (pH 7.4), transit performance in MDCK-MDR1 cell lines for permeability, and metabolic stability in MLM and HLM as a measure of clearance. The main metabolites and routes of metabolism of 4y were determined in MLM. Assay protocols and additional data are presented in the Supplementary Material (Tables S1–S7). ADME studies reported in this work were performed by WuXi AppTec (Shanghai, China).
(§3) Representative assay protocols have been described in detail. ^1,2

The nature of series [3]: Aqueous solubility in PBS (pH 7.4). The settings on record: for solubility thermodynamic: PBS, Table S2, pH 7.4, n = 2, * below lower limit of quantification, read-out: Thermodynamic Solubility @ RT; for solubility: Table 3, PBS pH 7.4. The series is classed as physicochemical. As to the method:
as §2, §3

Series [4] concerns TCF/LEF Reporter (Luciferase) cell line. The series is described as follows: TCF/LEF reporter (Luciferase) assay with WNT3A in the absence of Notum. Type of series: cell-based. The settings on record: up to 10 μM. As to the method:
(§4) Early leads 4v, 4w and 4y were then evaluated in additional pharmacology and ADME screens (Table 3). […] Screening 4w and 4y in the biochemical assay using full length Notum and OPTS confirmed potent inhibition of Notum activity.
Figure S4D. Notum TCF/LEF reporter (Luciferase) data with WNT3A (200 ng/mL) in the absence of Notum. Representative response-concentration curves are for 4w (2 of 6 shown) from a larger data set for compounds 3-5. Examples are from different screening runs.

Series [5] is described as follows: Stability in mouse liver microsomes. Type of series: in vitro ADME. The settings on record: for microsomal CLint at 1 h: Table 3, read-out: MLM Clint. As to the method:
as §2, §3
For orientation: Microsomes from liver hold many membrane-bound enzymes, among them those of drug oxidation.

A further series concerns the target T2, Notum (Homo sapiens, UniProt Q6P988).
T2 construct: host or cells: TCF/LEF Reporter (Luciferase) cell line; Notum added exogenously
T2 sequence (Q6P988 20-496): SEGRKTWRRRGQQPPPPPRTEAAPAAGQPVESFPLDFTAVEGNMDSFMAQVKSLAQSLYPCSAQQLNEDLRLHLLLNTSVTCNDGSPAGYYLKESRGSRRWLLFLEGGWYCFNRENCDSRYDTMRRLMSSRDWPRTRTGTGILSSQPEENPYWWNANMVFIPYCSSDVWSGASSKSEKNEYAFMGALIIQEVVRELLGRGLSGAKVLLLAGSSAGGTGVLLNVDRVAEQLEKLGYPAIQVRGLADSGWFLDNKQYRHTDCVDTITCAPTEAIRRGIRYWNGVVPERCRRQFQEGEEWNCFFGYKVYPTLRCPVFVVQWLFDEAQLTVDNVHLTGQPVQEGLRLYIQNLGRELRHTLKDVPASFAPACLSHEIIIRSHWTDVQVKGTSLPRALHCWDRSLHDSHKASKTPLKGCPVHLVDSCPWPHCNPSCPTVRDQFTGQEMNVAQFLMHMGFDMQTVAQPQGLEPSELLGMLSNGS
Description: TCF/LEF Reporter (Luciferase) cell line with exogenous WNT3a and Notum. Type of series: cell-based. The settings on record: for EC50: Notum (core, 81–451C330S), restoration of Wnt signalling, read-out: TCF-LEF, EC50; for restoration of Wnt signalling in the presence of Notum: concentration-response curves up to 10 μM. As to the method: Notum inhibitors 3–5 (Table 1, Table 2, Table 3, Table 4) were either purchased or prepared using established synthetic methods from readily available starting materials (Scheme 1). Where necessary, the synthesis of many of these amines (e.g. 6) have been reported previously and full details of their preparation have been included in the Experimental Section. Notum inhibition activity was determined using the standard Notum-OPTS biochemical assay using IC50 values. These values were used to compare relative activities with covalent inhibitors under carefully regulated assay conditions. Confirmed inhibitors were routinely screened in in vitro ADME assays. Selected inhibitors were screened for inhibition of Notum activity in a TCF/LEF Reporter (Luciferase) cell line with exogenous WNT3a and Notum, and soaked into Notum crystals to determine their binding modes and evidence of MoA. […]
as §1

A short description of series [6]: Metabolite identification of 4y in mouse liver microsomes (LC-UV-MS). Type of series: in vitro ADME. The settings on record: 4y at 10 µM incubated with MLM at 37 °C for 60 min; share of total drug-related components. How it is done: The test compound 4y at 10 µM was incubated with mouse liver microsomes (MLM) at 37 °C for 60 min. The positive control, 7-ethoxycoumarin (7-EC) at 10 µM, was run concurrently to assess Phase I metabolic activities in liver microsomes. […] After incubation, the samples were analysed by LC-UV-MS. The structures of the metabolites were proposed based on the interpretation of their MS and MS^2 data.
The relative abundance of 4y and each of the putative metabolites were calculated using peak area (peak area under the UV spectrum at 250-280 nm) of individual metabolite relative to the total area of all detected drug-related components (Table S6).

A further series concerns the target T3, Notum (full length) (Homo sapiens, UniProt Q6P988).
T3 construct: Screening 4w and 4y in the biochemical assay using full length Notum and OPTS
T3 sequence (Q6P988 20-496): T2 sequence (Q6P988 20-496)
Description: Notum-OPTS biochemical assay, full length Notum. The settings on record: Notum (full length); read-out: OPTS, IC50. As to the method:
as §4, §1

Setting [7] is: Table 2, mean ± s.d. of n = 4–12, >10 = 20–50% inhibition @ 10 μM, read-out: Notum IC50.
The mark [8] stands for this setting: Notum (core, 81–451C330S), read-out: OPTS, IC50.
Where [9] appears, read: mouse, read-out: MLM Stability t1/2.
Where [10] appears, read: Table 4, mean ± s.d. of n = 4–8, >10 = 20–50% inhibition @ 10 μM, read-out: Notum IC50.

In brackets after ≈: the same amount, converted by molar mass. Several values for one entry are separate records, joined by “and”; a condition that tells them apart may be missing. Equal values may be shown once. Read-outs that look alike come from different tables or passages of the source. A value given as a limit tells only on which side of the number the result lay.

Regarding `CC(=O)N1CCc2c(Cl)cccc21` [Compound 4g, 1-(4-Chloroindolin-1-yl)ethan-1-one], the half-inhibitory concentration (IC50) in series [1] (setting [7]) was 40 ± 24 nM. Also, the “fold increase in Notum inhibition over 3a” value in series [1] is on record as 10 fold. In series [2], the “HLM Stability Cli” value came out at 640 µL/min/mg protein and the half-life stood at 2.2 min.
Take `CC(=O)N1CCc2c1cccc2C(F)(F)F` [Compound 4o, 1-(4-(Trifluoromethyl)indolin-1-yl)ethan-1-one]: the IC50 in series [1] (setting [7]) was found to be 30 ± 4 nM. In addition, in series [2], the “HLM Stability Cli” value was found to be 900 µL/min/mg protein and the half-life was determined as 1.5 min.
Turning to `CC(=O)N1CCc2c1ccc(Cl)c2C(F)(F)F` [Compound 4v, 1-(5-Chloro-4-(trifluoromethyl)indolin-1-yl)ethan-1-one], the half-maximal inhibitory concentration (IC50) in series [1] (setting [8]) is 1.3 ± 0.3 nM. Moreover, in series [1] (setting [7]), the IC50 was determined as 1.3 ± 0.3 nM. For the same compound, in series [3], the solubility (thermodynamic) was found to be 1.55 µg/mL (≈ 5.88 µM) and the concentration in solution (solubility) was 1.6 µg/mL (≈ 6.07 µM). In series [4], the “assay interference or cell toxicity in the absence of Notum” value is “not by assay interference or cell toxicity”. Also, in series [5], the “MLM Stability Cli” value is 650 µL/min/mg protein and the microsomal CLint at 1 h was determined as 650 µL/min/mg. For the same compound, the half-life in series [5] (setting [9]) was 2.1 min. At Notum, the EC50 amounted to 28 ± 20 nM and the “restoration of Wnt signalling in the presence of Notum” value is listed as “restored Wnt signalling”.
Consider `CC(=O)N1CC2(CC2)c2c(Cl)cccc21` [Compound 4y, 1-(4′-Chlorospiro[cyclopropane-1,3′-indolin]-1′-yl)ethan-1-one], for which the “Relative Abundance (UV peak area %Total)” value in series [6] was 30% and 30.48%. In addition, the half-maximal inhibitory concentration (IC50) in series [1] (setting [8]) worked out at 3.5 ± 0.6 nM. In addition, the IC50 in series [1] (setting [7]) was found to be 3.5 ± 0.6 nM. For the same compound, in series [3], the solubility (thermodynamic) came to 0.186 µg/mL (≈ 0.839 µM) and the solubility came out at 0.2 µg/mL (≈ 0.902 µM). Besides, the “assay interference or cell toxicity in the absence of Notum” value in series [4] was “not by assay interference or cell toxicity”. Besides, in series [5], the “MLM Stability Cli” value worked out at 895 µL/min/mg protein and the microsomal CLint at 1 h turned out to be 900 µL/min/mg. Further, the half-life in series [5] (setting [9]) worked out at 1.5 min. For the same compound, the half-inhibitory concentration (IC50) at Notum (full length) was 11 ± 1.4 nM. Besides, at Notum, the EC50 came out at 35 ± 13 nM and the “restoration of Wnt signalling in the presence of Notum” value is recorded as “restored Wnt signalling”.
On to `CC(=O)N1CC2(CC2)c2cc(Cl)ccc21` [Compound 4z, 1-(5′-Chlorospiro[cyclopropane-1,3′-indolin]-1′-yl)ethan-1-one], for which the half-inhibitory concentration (IC50) in series [1] (setting [7]) is 34 ± 10 nM. Further, in series [5], the “MLM Stability Cli” value came out at 620 µL/min/mg protein. Besides, the half-life in series [5] (setting [9]) is 2.2 min.
`CS(=O)(=O)N1CC2(CC2)c2c(Cl)cccc21` [Compound 5b, 4′-Chloro-1'-(methylsulfonyl)spiro[cyclopropane-1,3′-indoline]]: in series [1] (setting [10]), the IC50 worked out at 1000 ± 300 nM. The “MLM Stability Cli” value in series [5] was 200 µL/min/mg protein. For the same compound, in series [5] (setting [9]), the half-life worked out at 7 min.
With `CC(=O)n1ccc2c(Cl)c(Cl)ccc21` [Compound 5d, 1-(4,5-Dichloro-1H-indol-1-yl)ethan-1-one], the IC50 in series [1] (setting [10]) was determined as 31 ± 4 nM. Also, in series [3], the solubility (thermodynamic) was less than 0.36 µg/mL. In addition, in series [5], the “MLM Stability Cli” value is 1320 µL/min/mg protein. The half-life in series [5] (setting [9]) came to 1.1 min.
With `O=C1CCC2Cc3ccccc3N12` (stereo not drawn) [Compound 5f, 1,2,9,9a-Tetrahydro-3H-pyrrolo[1,2-a]indol-3-one], the half-maximal inhibitory concentration (IC50) in series [1] (setting [10]) was found to be 180 ± 20 nM. In addition, the “fold increase in Notum inhibition over 3a” value in series [1] is 2 fold. The thermodynamic solubility in series [3] was 577 µg/mL (≈ 3330 µM). Besides, the “MLM Stability Cli” value in series [5] is given as 73 µL/min/mg protein. Moreover, in series [5] (setting [9]), the half-life was determined as 19 min and the half-life at 1 h is 18 min.

Usually IC50 stands for the concentration that inhibits the measured activity by half. As usually defined, the solubility (thermodynamic) is solubility found after equilibrating the solid with the medium. The term solubility denotes how much of the substance goes into solution per volume. Read a high solubility as a readily soluble substance. The term EC50 denotes the concentration needed to bring the measured effect to its halfway point.
